Common to all, as to assay type: cell-based
Experiment [1] concerns EPCR-positive HSCs (EPCR+HSCs). The experiment is described as follows: Culture of HSCs in the presence of carboxylic acid derivatives of thyronine. The note with it: compared to the control group treated with DMSO alone; Figure 9. An excerpt:
T3 represents 3,3',5-triiodo-L-thyronine (T3). T3 acetic acid denotes 3,3',5-triiodo-L-thyroacetic acid (T3AA). 35T2 denotes 3,5-diiodo-L-thyronine (3,5-T2). 35T2 acetic acid denotes 3,5-diiodo-L-thyroacetic acid (3,5-T2AA). 33T2 denotes 3,3'-diiodo-L-thyronine (3,3'-T2).

Experiment [2] has as its system mouse HSCs. As to the kind of experiment: Short-term culture of HSCs (one week) with thyroid hormones and metabolites. The note with it: 10 µM; for number of HSCs after culture (total cell count per colony): 300 mouse HSCs cultured one week in SF-O3, SCF 100ng/mL, TPO 100ng/mL, vs control (Ctl), Figure 1; for CD48 expression (mean fluorescence intensity of CD48 staining per colony): one week culture, CD48 is a marker for cells differentiating from HSCs, Figure 2. The method, then: Method: A population containing mouse hematopoietic stem cells was processed using a cell sorter to enrich cells with the surface phenotype CD150^+ CD48^- EPCR^+ Lineage^- Sca-1^+c-Kit^+. These purified cells are hereinafter referred to as mouse HSCs. 300 mouse HSCs were cultured for one week at 37°C under 5% CO2 in medium containing SF-O3 (Sanko Junyaku), SCF 100ng/mL, and TPO 100ng/mL. The number of cells in each colony formed after culture was counted. All subsequent culture experiments were performed at 37°C under 5% CO2. The concentration of each thyroid hormone and its metabolites was set to 10 µM. The control group (Ctl) medium contained no added thyroid hormones or metabolites.
Results: The groups treated with thyroid hormones and their metabolites were compared to the control group (Ctl). […] Circles represent counts per colony. Error bars indicate standard deviation. "Ctl" on the x-axis denotes the absence of added thyroid hormones and their metabolites. […] Circles represent measured values per colony. Error bars indicate standard deviation.
In Figures 1 and 2, T4 denotes thyroxine (T4). T3 denotes 3,3',5-triiodo-L-thyronine (T3). rT3 denotes 3,3',5'-triiodothyronine (rT3). 3,3'T2 denotes 3,3'-diiodo-L-thyronine (3,3'-T2). 3,5T2 denotes 3,5-diiodo-L-thyronine (3,5-T2). 3',5'T2 denotes 3',5'-diiodo-L-thyronine (3',5'-T2). T1AA denotes 3-iodothyroacetic acid (3-T1AA). T1AM denotes 3-iodothyronamine (3-T1AM). L-T0 denotes L-thyronine (T0). DL-T0 denotes the racemic form of thyronine.

Experiment [3] deals with EPCR+HSC. The experiment is described as follows: 4-week culture of hematopoietic cells in the presence of T2. An excerpt:
The control group received only DMSO. Differentiated blood cells are c-Kit-negative cells. MPP3, MPP2, and MPP1 are multipotent progenitor cells (MPPs) referred to as hematopoietic progenitor cells. EPCR-HSC are EPCR-negative HSCs. EPCR-HSC are slightly less functional than EPCR-positive HSCs. EPCR+HSC are EPCR-positive HSCs. EPCR+HSC represent the most undifferentiated population among HSCs.

Experiment [4] deals with mouse-derived HSCs. The experiment is described as follows: Expansion of mouse-derived HSCs in serum-free medium containing PVA. The note with it: serum-free medium containing PVA and T2. The method, then: Mouse-derived HSCs were cultured in serum-free medium containing PVA and T2 instead of the serum-containing T2 medium described above. HSC expansion was also promoted in this serum-free medium. Furthermore, HSC differentiation was suppressed. At this time, the optimal concentration of T2 was 0.1 µM.

Experiment [5] deals with mouse-derived HSCs. As to the kind of experiment: Culture of HSCs in medium containing a thyroid hormone derivative. The note with it: medium containing sobetirome. An excerpt:
Additionally, HSC differentiation was suppressed.

Entries after “also recorded” stand apart in the source; their conditions may differ.

On to `N[C@@H](Cc1ccc(Oc2ccc(O)c(I)c2)c(I)c1)C(=O)O` [3,3'-T2, 3,3'-Diiodo-L-thyronine], for which the “proportion of EPCR+HSCs after culturing HSCs” value (“proportion of EPCR+HSCs” for short) in experiment [1] is “increased”. Moreover, in experiment [2], the “number of HSCs after culture (total cell count per colony)” value (“number … (total cell count per colony)” below) is listed as “high” and the “CD48 expression (mean fluorescence intensity of CD48 staining per colony)” value is “maintained at low levels; also recorded: most strongly suppressed CD48 expression”.

As for `N[C@@H](Cc1cc(I)c(Oc2ccc(O)cc2)c(I)c1)C(=O)O` [3,5-T2, 3,5-Diiodo-L-thyronine], the “proportion of EPCR+HSCs” value in experiment [1] is recorded as “increased”. In addition, in experiment [2], the “number … (total cell count per colony)” value is given as “high” and the “CD48 expression (mean fluorescence intensity of CD48 staining per colony)” value was “maintained at low levels”.

In the case of `O=C(O)Cc1cc(I)c(Oc2ccc(O)cc2)c(I)c1` [35T2 acetic acid, 3,5-Diiodo-L-thyroacetic acid], the “proportion of EPCR+HSCs” value in experiment [1] is “increased”.

As for `O=C(O)Cc1ccc(Oc2ccc(O)cc2)c(I)c1` [T1AA, 3-Iodo-L-thyroacetic acid], in experiment [2], the “number … (total cell count per colony)” value is given as “tendency to promote cell proliferation” and the “CD48 expression (mean fluorescence intensity of CD48 staining per colony)” value is reported as “tendency to reduce CD48 expression”.

Take `N[C@@H](Cc1ccc(Oc2ccc(O)c(I)c2)c(I)c1)C(=O)O` [T2, 3,3'-Diiodo-L-thyronine]: the “expansion factor of EPCR+HSC” value in experiment [3] (EPCR+HSC cultured 4 weeks in the presence of T2) was found to be 204 fold. The “EPCR+HSC expansion” value in experiment [3] (EPCR+HSC cultured 4 weeks in the presence of T2, vs control group (DMSO), Figure 10) is given as “expanded more than in the control group”. Further, the “expansion of other cells derived from EPCR+HSC (EPCR-HSC, MPP3, MPP2, MPP1, differentiated blood cells)” value in experiment [3] (EPCR+HSC cultured 4 weeks in the presence of T2, Figure 10) is “expanded”. In experiment [4], the HSC differentiation result is “suppressed”, the HSC expansion result was “promoted” and the “optimal concentration of T2” value worked out at 0.1 µM.

As for `N[C@@H](Cc1cc(I)c(Oc2ccc(O)c(I)c2)c(I)c1)C(=O)O` [T3, 3,3',5-triiodo-L-thyronine], in experiment [1], the “proportion of EPCR+HSCs” value is reported as “increased”. Moreover, in experiment [2], the “number … (total cell count per colony)” value is “high” and the “CD48 expression (mean fluorescence intensity of CD48 staining per colony)” value is listed as “maintained at low levels”.

`N[C@@H](Cc1cc(I)c(Oc2cc(I)c(O)c(I)c2)c(I)c1)C(=O)O` [T4, thyroxine]: in experiment [2], the “number … (total cell count per colony)” value is reported as “high” and the “CD48 expression (mean fluorescence intensity of CD48 staining per colony)” value was “maintained at low levels”.

In the case of `N[C@@H](Cc1ccc(Oc2cc(I)c(O)c(I)c2)c(I)c1)C(=O)O` [rT3, 3,3',5'-Triiodothyronine], in experiment [2], the “number … (total cell count per colony)” value is recorded as “high” and the “CD48 expression (mean fluorescence intensity of CD48 staining per colony)” value is “maintained at low levels”.

`Cc1cc(OCC(=O)O)cc(C)c1Cc1ccc(O)c(C(C)C)c1` [sobetirome, Sobetirome]: in experiment [5], the HSC differentiation entry is reported as “suppressed” and the HSC expansion entry is “promoted HSC expansion”.

These data come from patent publication EP4733383A1, “CULTURE MEDIUM AND BLOOD CELL CLONE, AND METHOD FOR PRODUCING SAME” (Japan Institute for Health Security, priority 2023, dated 2024).
